Reference: PMC12015293 (Communications Biology, 2025)

Test system: osteoclastogenesis of bone marrow-derived monocyte/macrophage precursor cells (BMMs)
Test: RANKL-induced osteoclast differentiation of BMMs
Type: cell-based, mouse (C57BL/6)
Settings: 10 μM, late stage

Q: How did the “effect of p38 inhibitor on osteoclastogenesis” value turn out when `C[S+]([O-])c1ccc(-c2nc(-c3ccncc3)c(-c3ccc(F)cc3)[nH]2)cc1` (stereo not shown) [SB203580] was run?
A: also inhibited osteoclastogenesis
